Legend:
Format in all cases: cell-based
[1] = Cell cytotoxicity 50 assay (CC50), MB200 cells, cell titer glo; settings: human
Method in brief: (§1)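 MB200 cells were seeded at 10 k/well in F10 medium with bFGF, 15% FBS and dexamethasone. Cells were exposed to serially diluted compound (from 10 mM stock) in triplicate for 72 h at 37 °C. Viability was read by CellTiter-Glo luminescence and CC50 was fitted.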

[2] = target: T1, DUX4 (Homo sapiens, UniProt Q9UBX2); experiment: DUX4 EC50 luciferase reporter protocol in transfected HEK293 cells; settings: 6 hr
T1 construct: expressed in transfected cells; host or cells: HEK293
Excerpt: EC50 Protocol This example provides a representative protocol for a single well of a 96-well plate. It can be scaled up as necessary for treatment of multiple wells. For negative controls, a well containing reporter DNA, Renilla DNA, and turbofect (without expression vector) were used. For positive controls, wells containing cells that were not treated with any inhibitor were used. They were transfected with the complete DNA lipid complex as set forth below. The DNA-lipid complex for one well of the 96-well plate is prepared by adding to a tube 100 ng of the transfection factor (TF) expression vector, 100 ng of TF reporter DNA, 10 ng of Renilla reporter DNA, […] Turbofect transfection reagent, and […] of the medium without any serum or penicillin/streptomycin. The combination was mixed by gentle flicking of the tube, and the mixture was pipetted into a well of a 96-well plate. The plate was then gently tapped to spread the combination evenly on the bottom of the well. The well was incubated for 30 min. HEK293 cells were grown until 80% confluent in DMEM supplemented with 10% fetal bovine serum, 1% penicillin streptomycin, and 1% amphotericin B. The adherent cells growing on a 10 cm plate were trypsinized with 1 mL of prewarmed trypsin. Once the cells detached from the plate, 10 mL of medium was added, and the cells were strained through a […] cell strainer. The cells were counted using a mixture of 10 mL cell suspension with 10 mL of trypan blue. Once the total number of cells are counted, a dilution of 150 k/mL was prepared. After incubation of the transfection complex was complete, […] of HEK293s (23.25 k total cells) were gently dispensed on top of the wells containing the 25 mL transfection complex, producing a total volume of about 180 mL. The mixture was then incubated for 24 h. To treat cells with each inhibitor, the inhibitors were prepared in the same growth medium. In a deep well block, the regular medium with serum was added to well 1 (135 mL) and to wells 2 through 10 (100 mL). To the first well was added 15 mL of 10 nM inhibitor. The final concentration of the drug in well 1 was 1 nM. The wells were pipeted up and down, and 50 mL was transferred from well 1 to well 2 (1/3 dilution). The well was mixed, and the seriation dilution was repeated with the remaining wells. Once the serial dilution was complete, using a multichannel pipet, 20 mL of each inhibitor were transferred to designated wells in a 96-well plate. […] Before the assay, a sufficient amount of 1× passive lysis buffer was prepared. The luciferase substrate buffer (Promega) was thawed completely and then mixed with the lyophilized luciferase substrate. The stop buffer (Promega) was also completely thawed. (1) Cell lysis: After treatment of the cells was complete, all the cell media is removed by flipping the 96-well plate over and tapping it dry on a dry paper towel. Immediately afterwards, the 1× passive lysis buffer (25 μL) was added. The plates were then placed on a rocker for 15 minutes at medium speed. (2)Measuring luciferase signal: The luciferase substrate solution for all wells was placed in a solution basin. The luciferase substrate solution was then added to every well (100 μL/well) using a multichannel pipette. The total luminescence was then read immediately using a plate reader. (3)Measuring Renilla signal: The “complete stop solution” was prepared in a solution basin by mixing the buffer with the 50× stop solution substrate (Promega) to make the final 1× solution. The complete stop solution was added to each well (50 μL/well) using a multichannel pipette. The total luminescence was then read immediately using a plate reader. Using a spreadsheet (e.g., Excel), the luciferase signal was divided by the renilla signal to get a relative luciferase unit.

[3] = Cell cytotoxicity 50 assay (CC50), HEK cells; settings: human
Method in brief: (§2)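 Starting from a 10 mM drug solution, serial dilutions were made in medium and added onto HEK cells, which were then incubated 72 h at 37 °C. Viability was read as CellTiter-Glo luminescence after 5 min, and CC50 was obtained by curve fitting.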

[4] = tested on: MB200 cells; experiment: Cell cytotoxicity 50 assay (CC50), MB200 cells, cell titer glo; settings: 72 h
Method in brief: as §1

[5] = tested on: MBD3L2 RNA; experiment: RNA isolation and qPCR to determine MBD3L2 RNA levels in FSHD cells; settings: 48 hrs
Method in brief: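 FSHD cells were treated one day after seeding with a DUX4 inhibitor (11 μM or 3.6 μM) for 48 h. Total RNA was DNase-treated and reverse-transcribed with random hexamers and M-MLV. MBD3L2 was quantified by SYBR Green qPCR in triplicate against EEF1A as the reference gene.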

[6] = tested on: HEK; experiment: Cell cytotoxicity 50 assay (CC50), HEK cells
Method in brief: as §2

T1 sequence (Q9UBX2 whole entry): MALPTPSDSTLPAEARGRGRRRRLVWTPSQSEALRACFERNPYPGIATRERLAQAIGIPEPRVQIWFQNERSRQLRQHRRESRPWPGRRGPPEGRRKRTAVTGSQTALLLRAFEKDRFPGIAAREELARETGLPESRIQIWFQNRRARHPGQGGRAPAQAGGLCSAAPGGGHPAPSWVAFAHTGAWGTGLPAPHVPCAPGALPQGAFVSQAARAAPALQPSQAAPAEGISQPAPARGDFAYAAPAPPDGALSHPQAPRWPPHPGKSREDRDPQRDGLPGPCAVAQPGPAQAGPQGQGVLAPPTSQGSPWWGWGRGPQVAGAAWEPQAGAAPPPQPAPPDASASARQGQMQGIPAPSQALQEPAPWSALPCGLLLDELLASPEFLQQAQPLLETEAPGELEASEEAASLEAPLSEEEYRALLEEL

| EC50 [2] | Compound | CC50 at 72 h [1] | CC50 at 72 h [3] | CC50 [4] | qPCR MBD3L2 Inhib at 11 µM [5] | CC50 [6] |
| --- | --- | --- | --- | --- | --- | --- |
| > 10 µM | O=C(CCC(=O)c1cccs1)Nc1ccc(-c2nc3ccccc3s2)cc1 [Compound 25] | > 10 µM | > 10 µM |  |  |  |
|  | O=C(CCC1CCC(=O)N1)Nc1ccc(-c2nc3ccccc3s2)cc1 (stereo not shown) [Compound 26] |  |  | 1 to 10 µM | YES | > 10 µM |
| > 10 µM | O=C(CCN1C(=O)CCC1=O)Nc1ccc(-c2ccc3ncsc3c2)cc1 [Compound 43] | > 10 µM | > 10 µM |  |  |  |
| > 10 µM | O=C(CCN1C(=O)CCC1=O)Nc1ccc(C(=O)c2nc3ccccc3s2)cc1 [Compound 69] | 1 to 10 µM | > 10 µM |  |  |  |
| > 10 µM | CC(=O)NCCCC(=O)Nc1coc(-c2nccs2)c1 [Compound 79] | > 10 µM | > 10 µM |  |  |  |
| > 10 µM | CC(=O)NCCCC(=O)Nc1ccc(Cc2nc3ccccc3s2)cc1 [Compound 80] | > 10 µM | > 10 µM |  |  |  |
| > 10 µM | O=C1CCC(=O)N1[C@H]1C[C@@H](C(=O)Nc2ccc(-c3nc4ccccc4s3)cc2)C1 [Compound 95] | > 10 µM | > 10 µM |  |  |  |
| > 10 µM | O=C(CCCN1C(=O)CCC1=O)N[C@H]1C[C@H](c2nc3ccccc3s2)C1 [Compound 98] | > 10 µM | > 10 µM |  |  |  |
| > 10 µM | CC(=O)NCCCC(=O)Nc1ncc(-c2nc3ccccc3s2)o1 [Compound 121] | > 10 µM | > 10 µM |  |  |  |
| > 10 µM | O=C(CCCN1CCCC1=O)NC1COCC1c1nc2ccccc2s1 (stereo not shown) [Compound 122] | > 10 µM | > 10 µM |  |  |  |
| > 10 µM | O=C(CCCN1CCCC1=O)NC1CCCCC1c1nc2ccccc2s1 (stereo not shown) [Compound 123] | > 10 µM | > 10 µM |  |  |  |
| > 10 µM | O=C(CCCN1C(=O)CCC1=O)N[C@@H]1CC[C@H](c2nc3ccccc3s2)C1 [Compound 127] | > 10 µM | > 10 µM |  |  |  |
| > 10 µM | O=C(CCCN1C(=O)CCC1=O)N[C@H]1CC[C@H](c2nc3ccccc3s2)C1 [Compound 128] | > 10 µM | > 10 µM |  |  |  |
| > 10 µM | CC(=O)NC1CCC(C(=O)N[C@H]2CC[C@@H](c3nc4ccccc4s3)CC2)C1 (stereo partly shown) [Compound 133] | > 10 µM | > 10 µM |  |  |  |
| > 10 µM | CC(=O)NC1CCC(C(=O)NC2CCC(c3nc4ccccc4s3)C2)C1 (stereo not shown) [Compound 135] | > 10 µM | > 10 µM |  |  |  |
| > 10 µM | CC(=O)NCCCC(=O)N[C@H]1CCC[C@H]1c1nc2ccccc2s1 [Compound 136] | > 10 µM | > 10 µM |  |  |  |
| > 10 µM | CC(=O)NCCCC(=O)N[C@@H]1CCC[C@H]1c1nc2ccccc2s1 [Compound 137] | > 10 µM | > 10 µM |  |  |  |
| > 10 µM | CC(=O)NCCCCC(=O)NC1CCC(c2nc3ccccc3s2)CC1 (stereo not shown) [Compound 139] | > 10 µM | > 10 µM |  |  |  |
| > 10 µM | O=C(CCCCN1C(=O)CCC1=O)NC1CCC(c2nc3ccccc3s2)CC1 (stereo not shown) [Compound 143] | > 10 µM | > 10 µM |  |  |  |
| > 10 µM | CC(=O)NCCCC(=O)N(C)C1CCC(c2nc3ccccc3s2)C1 (stereo not shown) [Compound 146] | > 10 µM | > 10 µM |  |  |  |

| EC50 [2] | Compound | CC50 at 72 h [1] | CC50 at 72 h [3] | CC50 [4] | qPCR MBD3L2 Inhib at 11 µM [5] | CC50 [6] |
| --- | --- | --- | --- | --- | --- | --- |
| > 10 µM | CN(C(=O)CCCN1C(=O)CCC1=O)C1CCC(c2nc3ccccc3s2)C1 (stereo not shown) [Compound 147] | > 10 µM | > 10 µM |  |  |  |
| > 10 µM | O=C(CCCN1C(=O)CCC1=O)Nc1ccc(Cc2nc3ccccc3s2)cc1 [Compound 148] | > 10 µM | > 10 µM |  |  |  |
| > 10 µM | O=C(NCCCN1C(=O)CCC1=O)c1ccc(Cc2nc3ccccc3s2)cc1 [Compound 150] | > 10 µM | > 10 µM |  |  |  |
| > 10 µM | O=C(CCCCN1C(=O)CCC1=O)N[C@H]1CC[C@H](c2nc3ccccc3s2)CC1 [Compound 152] | > 10 µM | > 10 µM |  |  |  |
| > 10 µM | CC(=O)NCCCN(C)C(=O)[C@@H]1CC[C@H](c2nc3ccccc3s2)C1 [Compound 153] | > 10 µM | > 10 µM |  |  |  |
| > 10 µM | CC(=O)NCCCN(C)C(=O)[C@H]1CC[C@H](c2nc3ccccc3s2)C1 [Compound 154] | > 10 µM | > 10 µM |  |  |  |
|  | O=C(CCCc1cccnc1)Nc1ccc(-c2nc3cc(F)ccc3s2)cc1 [Compound 155] | > 10 µM | 1 to 10 µM |  | YES |  |
|  | O=C(CCCc1cccnc1)Nc1ccc(-c2nc3ccccc3s2)nc1 [Compound 156] | > 10 µM | > 10 µM |  | YES |  |
|  | O=C(CCCN1C(=O)CCC1=O)N[C@@H]1CC[C@H](c2nc3ccccc3s2)C1 [Compound 159] |  |  | > 10 µM |  |  |
| > 10 µM | O=C(CCCN1C(=O)CCC1=O)N[C@H]1CC[C@@H](c2nc3ccccc3s2)C1 [Compound 160] | > 10 µM | > 10 µM |  |  |  |
| > 10 µM | CC(=O)NCCCNC(=O)[C@@H]1CC[C@H](c2nc3ccccc3s2)C1 [Compound 165] | > 10 µM | > 10 µM |  |  |  |
| > 10 µM | CC(=O)NCCCNC(=O)[C@H]1CC[C@H](c2nc3ccccc3s2)C1 [Compound 166] | > 10 µM | > 10 µM |  |  |  |
|  | O=C(CCCCN1C(=O)CCC1=O)Nc1ccc(-c2nc3ccccc3s2)o1 [Compound 167] | > 10 µM | > 10 µM |  | YES |  |
|  | CC(=O)NCCCC(=O)Nc1ccc(CCc2nc3ccccc3s2)cc1 [Compound 174] | > 10 µM | > 10 µM |  | YES |  |
|  | CC(=O)NCCCCC(=O)Nc1ccc(-c2nc3ccccc3s2)o1 [Compound 175] | > 10 µM | > 10 µM |  | YES |  |
| > 10 µM | CC(=O)NCCCNC(=O)c1cc(F)cc(-c2nc3cc(F)ccc3s2)c1 [Compound 180] | > 10 µM | > 10 µM |  |  |  |
| > 10 µM | CC(=O)NCCCC(=O)Nc1cc(F)cc(-c2nc3cc(F)ccc3s2)c1 [Compound 181] | > 10 µM | > 10 µM |  |  |  |
|  | CC(=O)N[C@H]1CC[C@H](C(=O)Nc2nc3ccccc3s2)C1 [Compound 184] | > 10 µM | > 10 µM |  | YES |  |
| > 10 µM | O=C1CCC(CCC(=O)N[C@H]2CC[C@@H](c3nc4ccccc4s3)CC2)N1 (stereo partly shown) [Compound 186] | > 10 µM | > 10 µM |  |  |  |
| > 10 µM | O=C1CCC(CCC(=O)N[C@H]2CC[C@H](c3nc4ccccc4s3)CC2)N1 (stereo partly shown) [Compound 187] | > 10 µM | > 10 µM |  |  |  |

Source: patent US20250313555A1, “2-SUBSTITUTED THIAZOLE AND BENZOTHIAZOLE COMPOSITIONS AND METHODS AS DUX4 INHIBITORS” (ALTAY THERAPEUTICS, INC., priority 2022, published 2025)
